According to patent US6498246B1, “Glycosaminoglycan derivatives and processes for preparing same” (Seikagaku Corporation, priority 1998, dated 2002):
Read-outs that look alike come from different tables or passages of the source.

What was measured:
mice = mice (males and females), cited from earlier work
[1] = test system: primary culture cells of Wistar rat cerebral cortex cells; assay: Measurement of neurite outgrowth promoting activity; assay type: cell-based; set-up: neurite outgrowth promoting activity (in words, FIG. 3): dose or concentration left out as unconfirmed; settings: for Neurite outgrowth promoting activity: 10 μg/ml, ratio of cerebral cortex cell masses showing neurite outgrowth after 2 days of culturing
Protocol: A fetus was aseptically excised from a Wistar rat in the 17th day of pregnancy (purchased from Japan SLC). The brain was excised from the fetus, and the cerebral cortex was obtained by removing the cerebellum, mid-brain, inter-brain and meninges in an un-sulfated DMEM medium (prepared by dissolving 500 mg of anhydrous CaCl2, 0.25 mg of Fe(NO)3/9H2O, 1,000 mg of KCl, 193.3 mg of MgCl2, 9,250 mg of NaHCO3, 312.5 mg of NaH2PO4/H2O, 37.5 mg of Phenol Red, 275 mg of sodium pyruvate, 100 ml of MEM amino acid (No. 11130-051, manufactured by Gibco), 75 mg of L-glycine, 1,460 mg of L-glutamine, 105 mg of L-serine, 100 ml of MEM vitamin solution (No. 11120-052, manufactured by Gibco), 15,150 mg of NaCl and 11,250 mg of D-glucose in 2.5 L of sterilized distilled water and adjusting the solution to pH 7.2).
Cerebral cortexes obtained from 10 animals were finely sliced 100 times in both lengthwise and crosswise with a safety razor on a 60 mm dish, and the cerebral cortex slices were mixed twice with 10 ml of phosphate-buffered saline (PBS) and dispensed into a 50 ml capacity Falcon tube to which was subsequently added 11 ml of the un-sulfated DMEM medium. While uniformly suspending by gentle shaking, this was dispensed in 0.5 ml portions into wells of a 24 well plate (bottom area, 2 cm^2) which had been coated with 0.1% polyethylene imine. After 2 hours of the commencement of culturing, 100 μl of each sample was taken out, and 50 μl of PBS containing each substance to be tested having 10 time concentration of its final concentration and 50 μl of 400 μM chloric acid/un-sulfated DMEM medium were added. After 2 days of culturing at 37° C. under 5% CO2, 500 μl of 1% glutaraldehyde/PBS was gently over-layered to carry out 20 minutes of fixation at room temperature. After removing the supernatant by suction, 0.5 ml of PBS was slowly over-layered and then immediately removed by suction. A 20% Giemsa solution/potassium phosphate buffer was over-layered and allowed to stand for 2 hours at room temperature. After removing the supernatant by suction, 0.5 ml of PBS was added.

blood plasma [2] = assay: Measurement of APTT (activated partial thromboplastin time); assay type: biochemical, rat; settings: for APTT activity: concentration of standard heparin giving APTT 100 seconds as percentage of that of the substance, standard heparin = 100; for APTT (3 μg/ml): final concentration 3 μg/ml
Protocol: For the measurement of APTT, blood was collected from rat lower aorta by 3.2% citric acid {fraction (1/10 )} volume and centrifuged at 1,000×g for 10 minutes, and 100 μl of the thus obtained blood plasma and 100 μl of each sample having varied concentration were put into a measuring cup and incubated at 37° C. for 1 minute. Thereafter, 100 μl of Actin (trade name, Yoshitomi Pharmaceutical) which had been incubated in advance at 37° C. was added thereto, and the incubation was continued for 2 minutes. Next, 100 μl of 0.02 M CaCl2 solution which had been incubated in advance at 37° C. was added thereto, and the period of time from this point until generation of coagulation was measured using a blood coagulation automatic measuring apparatus (KC-10A: manufactured by Amelung). Also, in Table 2, the final concentration of each of the inventive substance and standard heparin in the medium, by which the APTT value becomes 100 seconds, was obtained to calculate the concentration of the standard heparin as percentage based on the concentration of the inventive substance, and this value (%) was used as the APTT activity of the inventive substance.

blood plasma [3] = assay: Measurement of TT (thrombin time); assay type: biochemical, rat; settings: for TT activity: concentration of standard heparin giving TT 100 seconds as percentage of that of the substance, standard heparin = 100; for TT activity/APTT activity: ratio of TT activity to APTT activity
Protocol: For the measurement of TT, 100 μl of the blood plasma and 100 μl of each sample having varied concentration were put into a measuring cup and incubated at 37° C. for 1 minute. Thereafter, 100 μl of thrombin (10 U/ml) incubated in advance at 37° C. was added thereto, and the period of time from this point until generation of coagulation was measured using the blood coagulation automatic measuring apparatus. In Table 2, the final concentration of each of the inventive substance and standard heparin in the medium, by which the TT value becomes 100 seconds, was obtained to calculate the concentration of the standard heparin as percentage based on the concentration of the inventive substance, and this value (%) was used as the TT activity of the inventive substance.

[4] = Anticoagulation activity of the standard heparin; settings: property of the standard heparin preparation
NSC-34 cells = assay: Measurement of neural cell death inhibition activity; assay type: cell-based, mouse
Protocol: That is, culturing was carried out by adding 0.09 ml of serum-free DMEM medium containing 1×10^5 of NSC-34 cells (received from Dr. Cashman (Toronto University): a mouse motor neuron-derived cultured cell strain) to a 96 well multi-plate which had been treated with 0.1% polyethylene imine in advance. Two hours after culturing, 10 μl of 100, 1,000 or 10,000 μg/ml aqueous solution of the inventive substance was added to respective wells (the final concentration in the medium is 10, 100 or 1,000 μg/ml). Thereafter, culturing was continued for 46 hours, and the number of survived cells was measured by the MTT process using a hemocytometer. By comparing with the number of survived cells after 2 hours of the culturing, the number of dead cells after 48 hours of the culturing of a control in which the inventive substance was not added was defined as 100%, and the ratio of difference from the number of dead cells when the inventive substance was added (the number of cells rescued from the cell death) was calculated as percentage (FIG. 6).

[5] = test system: sialidase (homogenate of NSC-34 cells); assay: Measurement of sialidase activity with [3H]GM2 substrate; assay type: biochemical, mouse
Protocol: Into a 15 ml capacity glass tube, 1 mg of GM2 ganglioside (manufactured by IATRON) was put, and dissolved by adding 0.8 ml of distilled water, followed by sonication. To the resulting solution, 0.1 ml of PdCl2 solution (a supernatant fraction obtained by adding PdCl2 to distilled water to a concentration of 25 mg/ml, followed by sonication for 30 minutes, and then centrifuging the mixture at 2,000×g) was added, followed by stirring. […]
After the incubation, this was mixed with 5 ml of distilled water, applied to Sep-pak C18 cartridge column (manufactured by Waters) and eluted with methanol (3 ml) and then with chloroform : methanol (1:1 (v/v), 3 ml). The eluate was applied to DEAE-Sephadex A-25 column (manufactured by Pharmacia: 1 ml resin, swelled with methanol) and eluted with chloroform:methanol (1:1 (v/v), 3 ml), and then the eluate was dried to measure and compare radioactivity by a liquid scintillation counter. Radioactivity of a control in which 10 μl of distilled water was added instead of the standard heparin or inventive-substance was defined as 100% (FIG. 7). […]

| Substance | LD50 (mice; intravenous injection) | LD50 (mice; oral administration) | LD50 (mice; subcutaneous or intraperitoneal administration) | Neurite outgrowth promoting activity [1] [%] | APTT activity (blood plasma [2]) [%] | APTT (3 μg/ml) (blood plasma [2]) [s] | TT activity (blood plasma [3]) [%] | TT activity/APTT activity (blood plasma [3]) | anticoagulation activity [4] [IU/mg] | neurite outgrowth promoting activity (in words, FIG. 3) [1] | cells rescued from cell death (NSC-34 cells; 100 μg/ml aqueous solution added, NSC-34 cells) | activity to inhibit cell death and rescue the cells (NSC-34 cells; 100 and 1,000 μg/ml aqueous solution added, NSC-34 cells, 48 hours, MTT) | neurite outgrowth promoting activity in the survived cells (NSC-34 cells; survived NSC-34 cells) | sialidase inhibition activity compared with standard heparin ([5]; 10 μl of 10 μg/ml aqueous solution, 37° C., 1 hour (FIG. 7)) | sialidase inhibition activity compared with NeuAc2en ([5]; 10 μl of 10, 100 or 1,000 μg/ml aqueous solution (FIG. 8)) |
| --- | --- | --- | --- | --- | --- | --- | --- | --- | --- | --- | --- | --- | --- | --- | --- |
| heparin | about 1,000 mg/kg | ≥ 5,000 mg/kg | ≥ 2,500 mg/kg |  |  |  |  |  |  |  |  |  |  |  |  |
| heparin sodium salt [Standard heparin, reference compound] |  |  |  | 15.0 | 100 | 248 | 100 | 1 | 160 |  |  |  |  |  |  |
| selectively 2-O-desulfated periodic acid oxidation-reduction heparin [Inventive substance] |  |  |  | 29.7 | 2 | 32 | 0.37 | 0.185 |  | sharp increase in the neurite outgrowth promoting activity | about half the number of cells is rescued from cell death | markedly inhibit cell death | neurite outgrowth promoting activity was observed | stronger activity to inhibit sialidase which degrades ganglioside than the standard heparin | stronger sialidase inhibition activity than that of NeuAc2en |
